These are literature values, as cited in patent US20070286899A1, “Photo-composition for the treatment of joint diseases” (priority 2004, published 2007).

This data set deals with patients who use methotrexate.

For `CN(Cc1cnc2nc(N)nc(N)c2n1)c1ccc(C(=O)N[C@@H](CCC(=O)O)C(=O)O)cc1` [methotrexate], the “patients who develop gastrointestinal problems such as diarrhea and nausea” value was 60%.
